Measurements as given in BindingDB's records for doi:10.1038/nchembio.2087 (University of Oxford, 2016).

Assays:
Test in all cases: Demethylase AlphaScreen Assay
Conditions in all cases: pH 7.5
[1] = molecular target: T1, Lysine-specific demethylase 4C (Homo sapiens, UniProt Q9H3R0)
T1 sequence (Q9H3R0 whole entry): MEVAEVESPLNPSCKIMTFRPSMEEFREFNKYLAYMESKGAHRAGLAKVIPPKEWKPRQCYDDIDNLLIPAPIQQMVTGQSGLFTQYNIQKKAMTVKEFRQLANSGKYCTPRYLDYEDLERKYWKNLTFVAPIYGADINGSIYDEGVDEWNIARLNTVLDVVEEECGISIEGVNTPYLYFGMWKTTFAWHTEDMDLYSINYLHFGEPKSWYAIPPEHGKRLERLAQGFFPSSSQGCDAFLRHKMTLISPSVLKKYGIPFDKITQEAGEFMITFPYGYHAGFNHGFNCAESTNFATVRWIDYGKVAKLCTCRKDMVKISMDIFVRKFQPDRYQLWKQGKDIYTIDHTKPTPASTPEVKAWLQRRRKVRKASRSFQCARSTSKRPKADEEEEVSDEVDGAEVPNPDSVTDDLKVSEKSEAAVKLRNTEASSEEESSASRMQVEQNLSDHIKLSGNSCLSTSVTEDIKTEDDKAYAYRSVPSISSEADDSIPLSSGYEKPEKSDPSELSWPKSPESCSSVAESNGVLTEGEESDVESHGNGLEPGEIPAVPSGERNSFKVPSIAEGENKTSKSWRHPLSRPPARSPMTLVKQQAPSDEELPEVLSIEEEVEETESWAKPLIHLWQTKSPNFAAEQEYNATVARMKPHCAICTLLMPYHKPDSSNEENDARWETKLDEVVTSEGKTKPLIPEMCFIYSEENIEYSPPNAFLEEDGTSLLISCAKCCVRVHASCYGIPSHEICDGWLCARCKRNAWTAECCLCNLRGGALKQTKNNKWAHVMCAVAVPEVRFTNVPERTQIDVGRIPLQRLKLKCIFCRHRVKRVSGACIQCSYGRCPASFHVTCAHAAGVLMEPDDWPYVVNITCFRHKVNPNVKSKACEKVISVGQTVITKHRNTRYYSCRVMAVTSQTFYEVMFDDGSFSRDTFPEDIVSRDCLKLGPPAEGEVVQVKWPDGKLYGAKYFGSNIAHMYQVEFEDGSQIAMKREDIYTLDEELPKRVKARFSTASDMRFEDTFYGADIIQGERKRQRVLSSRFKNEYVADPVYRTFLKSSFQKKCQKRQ
Protocol: (§1) The demethylase AlphaScreen assay was performed in 384-well plate format using white proxiplates (PerkinElmer), and transfer of compound (100 nl) was performed using an ECHO 550 acoustic dispenser (Labcyte). […] All subsequent steps were carried out in assay buffer (50 mM HEPES, pH 7.5, 0.1% (wt/vol) BSA and 0.01% (vol/vol) Tween-20). In brief, 5 μl of assay buffer containing demethylase enzyme at 2× final assay concentration (see Supplementary Table 3c for assay specifics) was preincubated for 15 min with dilutions of compound.

[2] = molecular target: T2, Lysine-specific demethylase 5A [1-801] (Homo sapiens, UniProt P29375)
T2 construct: 1-801
T2 sequence (P29375 whole entry): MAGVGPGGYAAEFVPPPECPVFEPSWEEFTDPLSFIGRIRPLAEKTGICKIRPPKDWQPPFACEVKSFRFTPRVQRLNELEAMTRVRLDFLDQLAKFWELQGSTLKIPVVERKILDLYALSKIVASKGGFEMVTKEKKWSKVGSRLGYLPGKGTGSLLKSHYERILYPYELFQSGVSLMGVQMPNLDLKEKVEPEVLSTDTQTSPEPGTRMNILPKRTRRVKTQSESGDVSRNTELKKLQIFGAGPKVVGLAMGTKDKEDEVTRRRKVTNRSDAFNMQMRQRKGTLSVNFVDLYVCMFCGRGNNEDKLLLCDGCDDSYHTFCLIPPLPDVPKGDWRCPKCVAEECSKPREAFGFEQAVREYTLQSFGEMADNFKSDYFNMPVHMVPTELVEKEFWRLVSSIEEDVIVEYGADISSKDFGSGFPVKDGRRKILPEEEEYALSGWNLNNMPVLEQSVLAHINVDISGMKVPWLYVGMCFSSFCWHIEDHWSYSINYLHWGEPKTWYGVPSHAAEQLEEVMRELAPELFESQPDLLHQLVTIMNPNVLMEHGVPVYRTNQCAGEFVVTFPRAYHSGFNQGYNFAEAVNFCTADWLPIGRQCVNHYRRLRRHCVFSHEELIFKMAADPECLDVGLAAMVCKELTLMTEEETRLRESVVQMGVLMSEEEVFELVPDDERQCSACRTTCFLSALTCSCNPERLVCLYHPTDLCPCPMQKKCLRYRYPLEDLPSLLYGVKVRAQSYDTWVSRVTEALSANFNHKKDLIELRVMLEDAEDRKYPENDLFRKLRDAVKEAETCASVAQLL
Protocol: as §1

[3] = molecular target: Lysine-specific demethylase 5B (Homo sapiens, UniProt Q9UGL1)
Chain of Lysine-specific demethylase 5B (Q9UGL1 whole entry): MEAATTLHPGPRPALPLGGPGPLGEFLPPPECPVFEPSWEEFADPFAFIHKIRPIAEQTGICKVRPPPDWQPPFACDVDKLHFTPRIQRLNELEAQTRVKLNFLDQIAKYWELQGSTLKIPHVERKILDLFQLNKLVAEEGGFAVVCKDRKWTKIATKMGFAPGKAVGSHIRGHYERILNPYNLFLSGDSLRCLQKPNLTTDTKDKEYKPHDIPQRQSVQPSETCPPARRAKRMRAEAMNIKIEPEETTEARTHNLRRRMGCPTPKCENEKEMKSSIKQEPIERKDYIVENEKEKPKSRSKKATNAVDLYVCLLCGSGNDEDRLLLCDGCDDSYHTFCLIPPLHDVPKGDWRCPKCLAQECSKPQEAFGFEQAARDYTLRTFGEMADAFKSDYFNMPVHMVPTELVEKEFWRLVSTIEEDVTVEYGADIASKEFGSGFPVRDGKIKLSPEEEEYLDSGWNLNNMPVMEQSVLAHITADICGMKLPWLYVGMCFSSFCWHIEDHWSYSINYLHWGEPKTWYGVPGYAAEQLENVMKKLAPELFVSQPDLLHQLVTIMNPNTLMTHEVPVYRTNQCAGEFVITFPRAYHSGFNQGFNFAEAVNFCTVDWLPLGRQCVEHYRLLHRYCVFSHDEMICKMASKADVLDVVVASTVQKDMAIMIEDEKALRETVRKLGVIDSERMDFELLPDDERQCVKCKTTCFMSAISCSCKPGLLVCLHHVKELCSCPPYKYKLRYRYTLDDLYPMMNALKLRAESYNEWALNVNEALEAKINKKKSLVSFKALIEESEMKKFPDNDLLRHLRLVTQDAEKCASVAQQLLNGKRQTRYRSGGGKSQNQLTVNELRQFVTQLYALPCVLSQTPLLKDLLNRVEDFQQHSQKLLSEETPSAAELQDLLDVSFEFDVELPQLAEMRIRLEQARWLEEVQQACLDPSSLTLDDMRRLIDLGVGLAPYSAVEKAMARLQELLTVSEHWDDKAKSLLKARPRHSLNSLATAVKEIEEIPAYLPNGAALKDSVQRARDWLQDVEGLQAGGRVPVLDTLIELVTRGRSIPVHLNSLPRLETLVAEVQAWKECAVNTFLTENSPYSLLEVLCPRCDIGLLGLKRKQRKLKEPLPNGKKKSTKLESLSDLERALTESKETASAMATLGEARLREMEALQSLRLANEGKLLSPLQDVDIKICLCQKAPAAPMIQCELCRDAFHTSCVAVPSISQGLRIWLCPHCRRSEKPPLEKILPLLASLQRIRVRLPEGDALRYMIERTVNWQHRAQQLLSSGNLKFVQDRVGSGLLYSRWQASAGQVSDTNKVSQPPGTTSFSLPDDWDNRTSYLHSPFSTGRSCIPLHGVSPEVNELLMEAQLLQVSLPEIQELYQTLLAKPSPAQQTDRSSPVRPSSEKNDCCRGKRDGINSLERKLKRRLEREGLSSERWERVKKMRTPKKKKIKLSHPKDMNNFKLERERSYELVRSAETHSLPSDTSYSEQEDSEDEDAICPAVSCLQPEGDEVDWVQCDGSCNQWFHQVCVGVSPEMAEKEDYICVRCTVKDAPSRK
Protocol: as §1

[4] = molecular target: T3, Lysine-specific demethylase 5D [1-775] (Homo sapiens, UniProt Q9BY66)
T3 construct: 1-775
T3 sequence (Q9BY66 1-775): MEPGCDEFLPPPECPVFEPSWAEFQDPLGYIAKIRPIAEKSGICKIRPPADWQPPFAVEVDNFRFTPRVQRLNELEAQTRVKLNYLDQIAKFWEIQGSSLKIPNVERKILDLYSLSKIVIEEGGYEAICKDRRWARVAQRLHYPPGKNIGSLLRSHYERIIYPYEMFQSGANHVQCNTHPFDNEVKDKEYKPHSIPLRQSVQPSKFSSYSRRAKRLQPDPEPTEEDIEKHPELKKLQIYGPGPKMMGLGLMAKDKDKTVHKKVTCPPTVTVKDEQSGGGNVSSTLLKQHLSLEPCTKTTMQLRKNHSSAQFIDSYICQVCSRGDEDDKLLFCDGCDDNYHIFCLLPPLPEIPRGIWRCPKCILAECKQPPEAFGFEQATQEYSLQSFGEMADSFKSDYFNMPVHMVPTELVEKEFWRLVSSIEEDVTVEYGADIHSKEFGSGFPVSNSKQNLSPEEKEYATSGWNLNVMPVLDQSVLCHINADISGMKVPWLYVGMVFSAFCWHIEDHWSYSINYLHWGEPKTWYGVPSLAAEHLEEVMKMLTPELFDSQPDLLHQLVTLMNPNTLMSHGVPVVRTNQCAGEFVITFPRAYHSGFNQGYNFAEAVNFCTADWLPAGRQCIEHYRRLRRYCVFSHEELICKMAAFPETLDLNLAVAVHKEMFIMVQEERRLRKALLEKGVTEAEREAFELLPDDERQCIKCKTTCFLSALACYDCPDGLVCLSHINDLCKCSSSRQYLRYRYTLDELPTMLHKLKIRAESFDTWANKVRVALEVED
Protocol: as §1

[5] = molecular target: T4, Lysine-specific demethylase 3A (Homo sapiens, UniProt Q9Y4C1)
T4 sequence (Q9Y4C1 whole entry): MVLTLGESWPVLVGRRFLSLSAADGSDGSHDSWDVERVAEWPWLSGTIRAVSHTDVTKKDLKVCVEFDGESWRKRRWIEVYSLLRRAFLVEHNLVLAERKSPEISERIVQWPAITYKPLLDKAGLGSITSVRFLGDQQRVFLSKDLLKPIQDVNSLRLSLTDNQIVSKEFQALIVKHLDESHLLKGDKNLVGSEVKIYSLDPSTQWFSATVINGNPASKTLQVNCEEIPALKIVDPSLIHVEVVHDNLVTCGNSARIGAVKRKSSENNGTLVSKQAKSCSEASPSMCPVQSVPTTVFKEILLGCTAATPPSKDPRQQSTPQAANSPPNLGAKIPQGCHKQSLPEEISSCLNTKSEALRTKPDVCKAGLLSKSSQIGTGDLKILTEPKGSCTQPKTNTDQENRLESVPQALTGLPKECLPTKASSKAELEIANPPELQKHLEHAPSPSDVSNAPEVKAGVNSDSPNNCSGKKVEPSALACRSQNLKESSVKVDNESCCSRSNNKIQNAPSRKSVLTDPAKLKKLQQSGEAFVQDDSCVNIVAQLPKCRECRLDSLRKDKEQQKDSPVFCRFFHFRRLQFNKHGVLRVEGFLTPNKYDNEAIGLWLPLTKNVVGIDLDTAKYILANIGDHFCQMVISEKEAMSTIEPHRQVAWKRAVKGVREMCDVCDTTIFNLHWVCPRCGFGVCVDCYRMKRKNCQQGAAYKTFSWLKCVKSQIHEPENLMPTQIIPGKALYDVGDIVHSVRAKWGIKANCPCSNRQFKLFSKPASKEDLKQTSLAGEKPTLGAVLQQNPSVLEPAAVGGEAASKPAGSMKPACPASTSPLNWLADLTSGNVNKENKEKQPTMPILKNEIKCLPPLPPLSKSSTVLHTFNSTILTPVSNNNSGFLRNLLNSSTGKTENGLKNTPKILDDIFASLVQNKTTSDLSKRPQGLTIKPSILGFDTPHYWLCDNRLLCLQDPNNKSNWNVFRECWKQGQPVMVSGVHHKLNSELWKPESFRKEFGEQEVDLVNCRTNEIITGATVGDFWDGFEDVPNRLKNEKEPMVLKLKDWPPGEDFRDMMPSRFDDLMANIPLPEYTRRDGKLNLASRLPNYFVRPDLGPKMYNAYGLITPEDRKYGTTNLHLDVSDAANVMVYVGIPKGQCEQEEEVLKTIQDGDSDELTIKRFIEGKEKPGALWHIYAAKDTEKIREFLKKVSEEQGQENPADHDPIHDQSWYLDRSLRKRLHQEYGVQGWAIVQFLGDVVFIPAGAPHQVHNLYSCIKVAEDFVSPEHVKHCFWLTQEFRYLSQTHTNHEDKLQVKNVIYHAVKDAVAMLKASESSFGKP
Protocol: as §1

[6] = molecular target: T5, Lysine-specific demethylase 5C [1-765] (Homo sapiens, UniProt P41229)
T5 construct: 1-765
T5 sequence (P41229 whole entry): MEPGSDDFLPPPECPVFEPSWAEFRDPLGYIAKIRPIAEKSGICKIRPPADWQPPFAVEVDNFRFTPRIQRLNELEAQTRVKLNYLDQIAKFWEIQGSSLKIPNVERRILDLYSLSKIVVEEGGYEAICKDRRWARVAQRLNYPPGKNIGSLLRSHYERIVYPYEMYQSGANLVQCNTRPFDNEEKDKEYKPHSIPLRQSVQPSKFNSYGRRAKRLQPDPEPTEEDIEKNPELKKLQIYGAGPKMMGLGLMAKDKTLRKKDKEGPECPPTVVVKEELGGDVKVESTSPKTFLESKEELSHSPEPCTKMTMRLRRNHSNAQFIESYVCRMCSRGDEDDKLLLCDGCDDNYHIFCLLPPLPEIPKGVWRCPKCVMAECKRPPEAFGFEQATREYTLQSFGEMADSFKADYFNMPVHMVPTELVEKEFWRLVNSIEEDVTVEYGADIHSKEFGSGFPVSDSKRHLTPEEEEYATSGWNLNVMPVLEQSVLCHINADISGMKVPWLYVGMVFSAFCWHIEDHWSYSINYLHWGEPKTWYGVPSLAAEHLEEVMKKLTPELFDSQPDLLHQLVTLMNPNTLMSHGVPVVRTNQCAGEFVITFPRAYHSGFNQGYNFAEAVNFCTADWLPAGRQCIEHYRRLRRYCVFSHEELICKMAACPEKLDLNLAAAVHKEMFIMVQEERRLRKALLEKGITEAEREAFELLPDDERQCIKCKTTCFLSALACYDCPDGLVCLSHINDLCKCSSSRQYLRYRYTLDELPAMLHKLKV
Protocol: as §1

[7] = molecular target: T6, Lysine-specific demethylase 2A (Homo sapiens, UniProt Q9Y2K7)
T6 sequence (Q9Y2K7 whole entry): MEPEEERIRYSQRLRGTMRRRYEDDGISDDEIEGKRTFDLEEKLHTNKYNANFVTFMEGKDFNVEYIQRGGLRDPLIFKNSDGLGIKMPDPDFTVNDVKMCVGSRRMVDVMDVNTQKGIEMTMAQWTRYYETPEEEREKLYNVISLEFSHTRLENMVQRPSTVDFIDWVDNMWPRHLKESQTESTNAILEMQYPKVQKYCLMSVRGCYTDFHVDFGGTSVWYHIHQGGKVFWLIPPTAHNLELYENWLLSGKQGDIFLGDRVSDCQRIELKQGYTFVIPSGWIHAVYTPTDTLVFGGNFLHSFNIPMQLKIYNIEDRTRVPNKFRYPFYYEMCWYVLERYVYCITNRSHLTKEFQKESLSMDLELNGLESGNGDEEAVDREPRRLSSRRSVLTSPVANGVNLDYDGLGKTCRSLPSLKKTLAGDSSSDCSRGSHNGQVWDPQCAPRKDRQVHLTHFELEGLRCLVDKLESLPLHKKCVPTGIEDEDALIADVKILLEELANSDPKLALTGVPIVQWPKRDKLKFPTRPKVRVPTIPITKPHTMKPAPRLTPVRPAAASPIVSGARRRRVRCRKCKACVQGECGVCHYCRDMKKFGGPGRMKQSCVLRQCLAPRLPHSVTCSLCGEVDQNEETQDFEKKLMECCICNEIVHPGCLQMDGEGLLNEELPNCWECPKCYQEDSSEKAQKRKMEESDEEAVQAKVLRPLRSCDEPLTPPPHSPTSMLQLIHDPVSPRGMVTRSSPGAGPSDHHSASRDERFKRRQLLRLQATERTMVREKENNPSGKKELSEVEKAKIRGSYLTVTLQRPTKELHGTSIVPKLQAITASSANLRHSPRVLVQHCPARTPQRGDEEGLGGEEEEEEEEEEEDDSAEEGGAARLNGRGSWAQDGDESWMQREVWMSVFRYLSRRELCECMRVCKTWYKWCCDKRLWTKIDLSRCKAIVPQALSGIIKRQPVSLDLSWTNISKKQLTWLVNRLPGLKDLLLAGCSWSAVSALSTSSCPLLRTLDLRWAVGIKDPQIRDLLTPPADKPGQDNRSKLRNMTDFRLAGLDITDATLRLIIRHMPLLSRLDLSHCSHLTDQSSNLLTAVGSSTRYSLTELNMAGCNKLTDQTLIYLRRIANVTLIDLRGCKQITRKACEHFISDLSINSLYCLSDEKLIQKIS
Protocol: as §1

[8] = molecular target: Lysine-specific demethylase 6B (Homo sapiens, UniProt O15054)
Chain of Lysine-specific demethylase 6B (O15054 whole entry): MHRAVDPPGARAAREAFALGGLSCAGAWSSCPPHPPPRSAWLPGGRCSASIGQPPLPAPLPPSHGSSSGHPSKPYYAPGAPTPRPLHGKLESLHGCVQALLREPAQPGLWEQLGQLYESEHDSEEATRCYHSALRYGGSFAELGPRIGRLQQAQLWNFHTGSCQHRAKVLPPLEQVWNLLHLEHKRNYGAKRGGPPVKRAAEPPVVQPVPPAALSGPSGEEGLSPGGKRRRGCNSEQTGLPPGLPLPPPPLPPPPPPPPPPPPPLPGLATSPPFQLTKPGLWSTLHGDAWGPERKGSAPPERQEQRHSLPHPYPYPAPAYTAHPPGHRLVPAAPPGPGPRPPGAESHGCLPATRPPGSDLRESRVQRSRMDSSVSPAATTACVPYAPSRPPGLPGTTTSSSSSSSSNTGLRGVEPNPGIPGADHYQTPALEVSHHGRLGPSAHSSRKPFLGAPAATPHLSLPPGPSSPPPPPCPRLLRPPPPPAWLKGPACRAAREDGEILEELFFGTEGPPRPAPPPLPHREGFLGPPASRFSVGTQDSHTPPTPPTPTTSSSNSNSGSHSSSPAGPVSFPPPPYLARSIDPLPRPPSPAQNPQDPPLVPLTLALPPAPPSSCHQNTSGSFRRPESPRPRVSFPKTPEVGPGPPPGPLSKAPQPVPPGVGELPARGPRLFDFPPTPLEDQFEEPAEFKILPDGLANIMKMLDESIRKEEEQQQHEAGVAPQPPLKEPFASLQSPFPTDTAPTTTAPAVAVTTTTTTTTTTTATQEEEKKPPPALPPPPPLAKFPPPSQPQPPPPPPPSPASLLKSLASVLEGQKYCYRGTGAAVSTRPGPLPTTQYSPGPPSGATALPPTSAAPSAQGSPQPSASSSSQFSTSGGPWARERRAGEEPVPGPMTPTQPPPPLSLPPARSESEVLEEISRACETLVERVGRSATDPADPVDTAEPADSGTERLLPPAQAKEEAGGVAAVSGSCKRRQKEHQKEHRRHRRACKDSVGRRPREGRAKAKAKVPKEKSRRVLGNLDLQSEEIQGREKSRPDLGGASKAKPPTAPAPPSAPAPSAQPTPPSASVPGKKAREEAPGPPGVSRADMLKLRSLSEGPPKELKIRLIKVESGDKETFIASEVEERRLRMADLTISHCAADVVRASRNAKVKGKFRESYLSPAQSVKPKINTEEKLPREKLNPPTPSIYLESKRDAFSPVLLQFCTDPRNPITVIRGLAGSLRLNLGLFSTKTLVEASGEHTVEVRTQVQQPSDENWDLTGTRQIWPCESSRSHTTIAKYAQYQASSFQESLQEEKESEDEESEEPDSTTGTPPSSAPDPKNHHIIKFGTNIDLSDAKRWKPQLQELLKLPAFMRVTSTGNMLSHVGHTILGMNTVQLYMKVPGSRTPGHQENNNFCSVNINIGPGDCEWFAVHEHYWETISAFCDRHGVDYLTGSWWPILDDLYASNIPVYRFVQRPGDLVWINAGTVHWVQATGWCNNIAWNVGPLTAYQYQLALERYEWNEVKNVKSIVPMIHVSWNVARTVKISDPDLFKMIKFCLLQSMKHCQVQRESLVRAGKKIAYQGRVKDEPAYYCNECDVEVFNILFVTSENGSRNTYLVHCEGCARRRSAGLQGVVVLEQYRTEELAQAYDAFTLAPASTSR
Protocol: as §1

## O=C(O)CNC(=O)C(=O)O
[1]
  IC50: 41.5 µM
[2]
  IC50: 6.9 µM
[3]
  IC50: 24.5 µM
[4]
  IC50: 5.8 µM

## O=c1[nH]c(Oc2cnn(Cc3ccccc3)c2)nc2cnccc12 [GSK467]
[5]
  IC50: 33.9 µM
[1]
  IC50: 5.1 µM
[2]
  IC50: 0.024 µM
[3]
  IC50: 0.026 µM
[6]
  IC50: 0.065 µM
[4]
  IC50: 0.077 µM

## O=C(O)CCNc1cc(N2CCc3ccccc3CC2)nc(-c2ccccn2)n1 [GSK-J1]
[1]
  IC50: 64.9 µM
[2]
  IC50: 3.9 µM
[3]
  IC50: 0.55 µM
[6]
  IC50: 1.5 µM
[4]
  IC50: 1.5 µM

## CCN(CCN(C)C)C(=O)CNCc1cc(C(=O)O)ccn1 [KDOAM-20]
[7]
  IC50: 2.2 µM
[5]
  IC50: 0.78 µM
[1]
  IC50: 0.21 µM
[2]
  IC50: 0.007 µM
[3]
  IC50: 0.004 µM
[6]
  IC50: 0.013 µM
[4]
  IC50: 0.015 µM
[8]
  IC50: 1.4 µM

## O=C(O)c1ccnc(C(=O)O)c1 [pyridine-2,4-dicarboxylic acid]
[2]
  IC50: 1.3 µM
[4]
  IC50: 2.5 µM
